Reference: US20190032014A1, “USING MICROBIOTA METABOLITES TO DIFFERENTIATE NAÏVE T-CELLS AND RELATED METHODS TO INDUCE OR PREVENT INFLAMMATORY CONDITIONS” (THE TEXAS A&M UNIVERSITY SYSTEM, priority 2016, published 2019)
Entries after “also recorded” stand apart in the source; their conditions may differ.

Key:
Th17 transfer colitis = Th17 transfer colitis murine model; format: in vivo, Rag-null mice
Protocol: Finally, the presentation describes a study of the effects of an indole-induced iTreg skew on the course of colitis in a Th17 transfer colitis murine model. […] Briefly, naïve T-cells (CD4+CD25−) were cultured in vitro with cytokines to skew function towards a Th17 phenotype, in the presence of indole or 5-HI, or not. The skewed cultures were transferred to Rag-null mice (lack T- and B-lymphocytes); control mice received no T-cells. Mice were monitored for weight loss (as a measure of inflammation) over several weeks and assessed at indicated timepoints for T-cell phenotype.
The body weight of the mice was monitored from the time of cell transfer to the end point of day 49. […] Next, the Treg, Th17, and Th1 differentiation was assessed in cells obtained from the mesenteric lymph nodes (MLN) of mice administered directly with indole, 5-HI and control. These cells were determined/assayed by FACS for phenotype directly ex vivo from mice that were treated as in FIG. 28.

CD4+ CD25− naïve T cells = test: In vitro naïve T cell differentiation, Th2-skew (IL-4+); format: cell-based, C57BL/6 mice; settings: Th2 skewing conditions; vs solvent control
Protocol: When naïve CD4+ CD25− cells were cultured 72 hours in αCD3/28 coated wells with Th0-, Th1- or Th2-skew cytokines and indole or solvent control, followed by stimulation with PMA, Ionomycin and Golgi Plug for the last 5 hours of culture, no effect on the % of Th1 and Th2 cells was observed (in contrast to the significant effect that indole has on Treg and Th17 cells; see FIGS. 2A and 2B).
CD4+ CD25− T cells were isolated to high purity (>98%) from the pooled spleen and mesenteric lymph nodes of C57BL/6 mice (Jackson Labs) with a BD FACS Aria II flow cytometer. Fc Block (BD), αCD4-efluor450 (eBioscience clone GK1.5) and αCD25-PECy7 (eBioscience clone PC61.5) antibodies were used for staining before sorting.
For Th1-skew: 5 ng/mL IL-12 (Peprotech cat. #210-12) and 10 µg/mL αIL-4 (BioXCell clone 11B11) were added to culture. For Th2-skew: 10 ng/mL IL-4 (Peprotech) and 10 μg/mL αIFN-γ (BioXCell clone R4-6A2) were added to culture. For Th17-skew: 10 ng/mL IL-6 (Peprotech), 5 ng/mL IL-23 (R&D), 0.5 ng/mL TGF-β (Peprotech), 10 μg/mL al-4 (BioXCell clone 11B11), and 10 μg/mL αIFN-γ (BioXCell clone R4-6A2) were added to culture. For Treg-skew: 2 ng/mL TGF-β (Peprotech) and 100 U/mL IL-2 (Roche) were added to culture. Sodium Propionate, sodium acetate, sodium butyrate and sodium chloride (all from Sigma-Aldrich) were solubilized in media and added to culture. […]

IL-6 receptor / pSTAT3 = test: IL-6 receptor levels and STAT3 activity; format: cell-based; settings: vs control
Protocol: (§1) Indole and 5-HI were assessed for impact on TGF-β receptor expression and SMAD2/3 activity. […] Indole and 5-HI were also assessed for impact on IL-6 receptor levels and subsequent STAT3 activity.

FoxP3+ cells = test: Homing markers (α4β7, CD62L) on iTreg cells
[1] = test system: naïve T cells obtained from humans; test: Skewing of naïve T cells obtained from humans; format: cell-based
[2] = test system: TGF-β receptor / pSMAD2/3; test: TGF-β receptor expression and SMAD2/3 activity; format: cell-based
Protocol: as §1

[3] = MLN, D15 and D45, by the end point

For `c1ccc2[nH]ccc2c1` [Indole, indole], the “Treg differentiation in vivo (% FoxP3+ T cells and FoxP3+ levels, MLN)” value (Th17 transfer colitis; MLN, D15 and D45) was “induced early differentiation of Treg differentiation in vivo”, the “Th1 differentiation in vivo (% INF-γ+ T cells, Th1/Treg balance, MLN)” value (Th17 transfer colitis; [3]) was “suppresses Th1 differentiation in vivo” and the “Th17 differentiation in vivo (% IL-17+ T cells, Th17/Treg balance, MLN)” value (Th17 transfer colitis; [3]) was “suppresses Th17 differentiation in vivo”. For the same compound, the “weight change (% from starting weight)” value (Th17 transfer colitis; mice receiving conditioned Th17 T cells, around day 43, end point day 49) was “increase in body weight”, the “Th17 transfer colitis in vivo (overall)” value (Th17 transfer colitis; mouse, in vivo) was “inhibits the Th17 transfer colitis in vivo” and the “effect on % Th2 cells (IL-4+)” value (CD4+ CD25− naïve T cells) was “no effect; also recorded: did not influence the development of Th1 and Th2 cells”. For the same compound, the “% IL-6 receptor+ cells” value (IL-6 receptor / pSTAT3) was “decrease”, the “% pSTAT3+ cells / IL-6 induced stat3” value (IL-6 receptor / pSTAT3) was “decrease” and the “% of α4β7+ in FoxP3+ cells” value (FoxP3+ cells; indole alone) was “increases the % of α4β7+ in FoxP3+ cells”. For the same compound, the “% of α4β7+ in FoxP3+ cells” value (FoxP3+ cells; indole combined with retinoic acid (RA)) was “amplified when combined with retinoic acid (RA)”, the “% α4β7+ on iTreg cells” value (FoxP3+ cells; indole with acetate, propionate or butyrate at multiple concentrations) was “increases α4β7 in the presence of SCFAs, except for high levels of butyrate” and the “CD62L+ on FoxP3+ cells” value (FoxP3+ cells; with and without retinoic acid (RA)) was “increase of CD62L+ on FoxP3+ cells with and without combination with retinoic acid (RA)”. For the same compound, the “skewing effects on Tregs and Th17 cells in human cells” value [1] was “recapitulated on naïve T cells obtained from humans”, the “% pSMAD2/3+ cells” value ([2]; TGF-β induced, vs 5-HI or DMF control) was “higher” and the “% TGF-β receptor+ cells” value ([2]; vs DMF control) was “significantly increase”.
